Data published in publication PMC2756481 (Biochemical and biophysical research communications, 2009).
Read-outs that look alike come from different tables or passages of the source.

What was measured:
PARP [1] = conditions: in vitro; cited from earlier work
PARP [2] = conditions: in animal models; cited from earlier work
64 kDa MMP-2 [3] = biological target: T1, 64 kDa MMP-2 (Homo sapiens, UniProt P08253); assay: OmniMMP fluorogenic substrate kinetic assay of MMP-2 activity; format: biochemical; conditions: for IC50: 15 µM substrate; for IC50 values (range in words): substrate degradation assay, 64 kDa MMP-2
T1 sequence (P08253 110-660): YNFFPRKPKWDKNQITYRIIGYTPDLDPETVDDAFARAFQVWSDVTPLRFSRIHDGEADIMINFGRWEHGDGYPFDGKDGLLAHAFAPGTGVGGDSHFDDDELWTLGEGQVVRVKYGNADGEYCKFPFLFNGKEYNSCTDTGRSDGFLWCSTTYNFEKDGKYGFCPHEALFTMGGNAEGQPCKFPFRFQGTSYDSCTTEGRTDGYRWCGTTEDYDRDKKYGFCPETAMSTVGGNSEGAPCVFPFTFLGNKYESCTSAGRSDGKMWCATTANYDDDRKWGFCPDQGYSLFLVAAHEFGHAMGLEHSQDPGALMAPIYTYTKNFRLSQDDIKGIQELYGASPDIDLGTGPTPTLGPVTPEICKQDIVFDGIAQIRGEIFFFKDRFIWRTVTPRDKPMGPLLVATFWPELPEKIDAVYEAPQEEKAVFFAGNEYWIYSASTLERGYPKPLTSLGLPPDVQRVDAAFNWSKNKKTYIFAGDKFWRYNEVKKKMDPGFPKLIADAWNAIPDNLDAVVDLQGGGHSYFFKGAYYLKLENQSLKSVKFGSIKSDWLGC

64 kDa MMP-2 [4] = biological target: T1, 64 kDa MMP-2; assay: Gelatinolytic activity of MMP-2 by gelatin zymography; format: biochemical
[5] = IC50 ± SD, 1 nM ZnSO4, 50 mM Tris pH 7.6, 37 °C
[6] = IC50 ± SD, 10 µM ZnSO4, 50 mM Tris pH 7.6, 10 mM CaCl2, 0.05% Brij-35, 37 °C
[7] = read-out: IC50 ± SD, 10 µM ZnSO4, 50 mM Tris pH 7.6, 10 mM CaCl2, 0.05% Brij-35, 37 °C

SMILES	IC50 (64 kDa MMP-2 [3]; [5]) [µM]	IC50 (64 kDa MMP-2 [3]; [6]) [µM]	IC50 values (range in words) (64 kDa MMP-2 [3])	also measured
NC(=O)c1cccc(N)c1 [3-AB, 3-Aminobenzamide]	1000 ± 200	1760 ± 220	millimolar range	potency for PARP inhibition (PARP [1]): micromolar range; potency for PARP inhibition (PARP [2]): millimolar range
Nc1cccc2c(=O)[nH]ccc12 [5-AIQ, 5-aminoisoquinolinone]			high micromolar range	IC50 (64 kDa MMP-2 [3]; [7]): 102 ± 34 µM
C[C@H]1c2cccc(O)c2C(=O)C2=C(O)[C@]3(O)C(=O)C(C(N)=O)=C(O)[C@@H](N(C)C)[C@@H]3[C@@H](O)[C@@H]21 [Doxycycline, doxycycline]	93 ± 12	86 ± 13		
CN(C)c1ccc(O)c2c1C[C@H]1C[C@H]3[C@H](N(C)C)C(O)=C(C(N)=O)C(=O)[C@@]3(O)C(O)=C1C2=O [Minocycline, minocycline]		57 ± 6		
c1cnc2c(c1)ccc1cccnc12 [o-Phenanthroline, o-phenanthroline]	116 ± 9			

Now from value to compound, other results behind:

IC50 (64 kDa MMP-2 [3]; [5]) [µM]	IC50 (64 kDa MMP-2 [3]; [6]) [µM]	IC50 values (range in words) (64 kDa MMP-2 [3])	SMILES	also measured
		millimolar range	Nc1ncnc2c1ncn2[C@@H]1O[C@H](C(=O)N2CCN(CC(=O)Nc3cccc4c3CNC4=O)CC2)[C@@H](O)[C@H]1O [EB-47, 1-piperazineacetamide-4-[1-(6-amino-9H-purin-9-yl)-1-deoxy-D-ribofuranuron]-N-(2,3-dihydro-1H-isoindol-4-yl)-1-one]	IC50 (64 kDa MMP-2 [3]; [7]): > 3000 µM
27 ± 10	56 ± 14	high micromolar range	CN(C)CC(=O)Nc1ccc2[nH]c(=O)c3ccccc3c2c1 [PJ-34, 2-(dimethylamino)-N-(5,6-dihydro-6-oxophenanthridin-2-yl)acetamide]	IC50 (64 kDa MMP-2 [4]): 9200 µM
